The CheMixHub viscosity set
± gives the uncertainty stated by the source.

Experiment: xn = mol fraction of the nth substance listed

C1CCCCCCC1 + C1CCCC1
101 kPa
Conditions | viscosity [mPa·s]
298.15 K, x1 = 0.0472 | 0.4501 ± 0.0048
298.15 K, x1 = 0.06 | 0.4609 ± 0.0049
298.15 K, x1 = 0.1203 | 0.5119 ± 0.0053
298.15 K, x1 = 0.1974 | 0.5838 ± 0.006
298.15 K, x1 = 0.1982 | 0.5837 ± 0.006
298.15 K, x1 = 0.2776 | 0.6681 ± 0.0068
298.15 K, x1 = 0.4053 | 0.824 ± 0.008
298.15 K, x1 = 0.4083 | 0.827 ± 0.008
298.15 K, x1 = 0.5052 | 0.968 ± 0.01
298.15 K, x1 = 0.5909 | 1.116 ± 0.011
298.15 K, x1 = 0.6747 | 1.276 ± 0.013
298.15 K, x1 = 0.7902 | 1.55 ± 0.015
298.15 K, x1 = 0.9049 | 1.895 ± 0.019
303.15 K, x2 = 0.1036 | 1.684 ± 0.01
303.15 K, x2 = 0.2009 | 1.421 ± 0.0085
303.15 K, x2 = 0.3014 | 1.205 ± 0.0073
303.15 K, x2 = 0.3972 | 1.031 ± 0.0064
303.15 K, x2 = 0.5003 | 0.8744 ± 0.0055
303.15 K, x2 = 0.5992 | 0.7468 ± 0.0049
303.15 K, x2 = 0.7036 | 0.6288 ± 0.0043
303.15 K, x2 = 0.8996 | 0.4555 ± 0.0036

C1CCCCCCC1 + C1CCCCC1
viscosity [mPa·s], 101 kPa
Conditions | 303.15 K | 308.15 K | 313.15 K
x2 = 0.0546 | – | 1.706 ± 0.027 | 1.541 ± 0.024
x2 = 0.0923 | 1.877 ± 0.011 | – | –
x2 = 0.1695 | – | 1.514 ± 0.024 | 1.381 ± 0.022
x2 = 0.2019 | 1.715 ± 0.01 | – | –
x2 = 0.2513 | – | 1.41 ± 0.022 | 1.277 ± 0.02
x2 = 0.2992 | 1.585 ± 0.0094 | – | –
x2 = 0.3712 | – | 1.274 ± 0.02 | 1.165 ± 0.019
x2 = 0.4839 | – | 1.158 ± 0.019 | 1.054 ± 0.017
x2 = 0.4989 | 1.344 ± 0.0081 | – | –
x2 = 0.5516 | – | 1.097 ± 0.018 | 1.004 ± 0.017
x2 = 0.5811 | 1.254 ± 0.0076 | – | –
x2 = 0.6466 | 1.183 ± 0.0072 | – | –
x2 = 0.6567 | – | 1.006 ± 0.017 | 0.9146 ± 0.015
x2 = 0.7233 | 1.102 ± 0.0068 | – | –
x2 = 0.7817 | – | 0.9053 ± 0.015 | 0.8267 ± 0.014
x2 = 0.8015 | 1.021 ± 0.0063 | – | –
x2 = 0.8998 | 0.924 ± 0.0058 | – | –
x2 = 0.9314 | – | 0.8049 ± 0.014 | 0.7359 ± 0.013

CCCCC + C1CCCCC1
101 kPa
Conditions | viscosity [mPa·s]
293.15 K, x2 = 0.2248 | 0.287 ± 0.008
293.15 K, x2 = 0.3367 | 0.327 ± 0.009
293.15 K, x2 = 0.4743 | 0.39 ± 0.01
293.15 K, x2 = 0.601 | 0.466 ± 0.012
293.15 K, x2 = 0.7202 | 0.561 ± 0.015
293.15 K, x2 = 0.8333 | 0.685 ± 0.018
298.15 K, x2 = 0.176 | 0.264 ± 0.007
298.15 K, x2 = 0.3541 | 0.321 ± 0.009
298.15 K, x2 = 0.4788 | 0.372 ± 0.01
298.15 K, x2 = 0.6163 | 0.447 ± 0.013
298.15 K, x2 = 0.7478 | 0.544 ± 0.02
298.15 K, x2 = 0.8754 | 0.68 ± 0.026

CCCCCCCO + C1CCCCC1
viscosity [mPa·s]
Conditions | 293.15 K | 303.15 K | 313.15 K | 323.15 K
100 kPa, x2 = 0.0812 | 6.08 ± 0.49 | 4.38 ± 0.35 | 3.22 ± 0.26 | 2.46 ± 0.2
100 kPa, x2 = 0.1614 | 5.3 ± 0.43 | 3.79 ± 0.3 | 2.82 ± 0.23 | 2.16 ± 0.17
100 kPa, x2 = 0.2386 | 4.61 ± 0.37 | 3.28 ± 0.26 | 2.47 ± 0.2 | 1.91 ± 0.15
100 kPa, x2 = 0.3496 | 3.76 ± 0.3 | 2.69 ± 0.22 | 2.05 ± 0.16 | 1.59 ± 0.13
100 kPa, x2 = 0.4387 | 3.17 ± 0.25 | 2.28 ± 0.18 | 1.75 ± 0.14 | 1.38 ± 0.11
100 kPa, x2 = 0.5596 | 2.47 ± 0.2 | 1.81 ± 0.15 | 1.41 ± 0.11 | 1.12 ± 0.09
100 kPa, x2 = 0.6491 | 2.02 ± 0.16 | 1.52 ± 0.12 | 1.18 ± 0.1 | 0.95 ± 0.08
100 kPa, x2 = 0.7411 | 1.64 ± 0.13 | 1.27 ± 0.1 | 1 ± 0.08 | 0.82 ± 0.07
100 kPa, x2 = 0.8503 | 1.28 ± 0.1 | 1.03 ± 0.08 | 0.83 ± 0.07 | 0.7 ± 0.06
100 kPa, x2 = 0.9397 | 1.07 ± 0.09 | 0.87 ± 0.07 | 0.72 ± 0.06 | 0.62 ± 0.05
101.33 kPa, x1 = 0.0996 | – | 0.9648 ± 0.012 | – | –
101.33 kPa, x1 = 0.197 | – | 1.134 ± 0.014 | – | –
101.33 kPa, x1 = 0.3024 | – | 1.357 ± 0.016 | – | –
101.33 kPa, x1 = 0.3923 | – | 1.585 ± 0.019 | – | –
101.33 kPa, x1 = 0.5062 | – | 1.936 ± 0.023 | – | –
101.33 kPa, x1 = 0.6052 | – | 2.307 ± 0.027 | – | –
101.33 kPa, x1 = 0.7008 | – | 2.749 ± 0.032 | – | –
101.33 kPa, x1 = 0.795 | – | 3.258 ± 0.037 | – | –
101.33 kPa, x1 = 0.884 | – | 3.84 ± 0.043 | – | –

OC1CCCCC1 + C1CCCCC1
101 kPa
Conditions | viscosity [mPa·s]
303.15 K, x2 = 0.05 | 19 ± 1
303.15 K, x2 = 0.09 | 15.63 ± 0.44
303.15 K, x2 = 0.14 | 12.83 ± 0.36
308 K, x2 = 0.1168 | 10.68 ± 0.074
308 K, x2 = 0.2322 | 7.143 ± 0.051
308 K, x2 = 0.3358 | 4.937 ± 0.037
308 K, x2 = 0.4443 | 3.51 ± 0.026
308 K, x2 = 0.5452 | 2.453 ± 0.019
308 K, x2 = 0.6483 | 1.716 ± 0.013
308 K, x2 = 0.7411 | 1.326 ± 0.01
308 K, x2 = 0.8311 | 1.049 ± 0.0083
308 K, x2 = 0.918 | 0.8891 ± 0.0071
323.15 K, x2 = 0.05 | 7.54 ± 0.22
323.15 K, x2 = 0.09 | 6.39 ± 0.18
323.15 K, x2 = 0.14 | 5.53 ± 0.16

CCCCC + C1CCOC1
viscosity [mPa·s], 101 kPa
Conditions | x2 = 0.1001 | x2 = 0.2001 | x2 = 0.3001 | x2 = 0.4001 | x2 = 0.5001 | x2 = 0.6001 | x2 = 0.7001 | x2 = 0.8001 | x2 = 0.9001
293.15 K | 0.2331 ± 0.011 | 0.2498 ± 0.011 | 0.2688 ± 0.012 | 0.2894 ± 0.012 | 0.3116 ± 0.013 | 0.3371 ± 0.014 | 0.3686 ± 0.014 | 0.4034 ± 0.015 | 0.4485 ± 0.017
298.15 K | 0.2241 ± 0.01 | 0.2405 ± 0.011 | 0.258 ± 0.011 | 0.2768 ± 0.012 | 0.2977 ± 0.012 | 0.3204 ± 0.013 | 0.347 ± 0.014 | 0.38 ± 0.015 | 0.4212 ± 0.016

CCOC(=O)C(C)O (stereo not given) + C1CCOC1
101 kPa
Conditions | viscosity [mPa·s]
308.15 K, x1 = 0.6999 | 1.255 ± 0.024
313.15 K, x1 = 0.4001 | 0.7575 ± 0.014

CS(C)=O + C1CCOC1
298.15 K, 101 kPa
Conditions | viscosity [mPa·s]
x2 = 0.27 | 1.523 ± 0.013
x2 = 0.52 | 1.112 ± 0.01
x2 = 0.76 | 0.7376 ± 0.0083

CCCCC + CC1CCCCC1
viscosity [mPa·s], 101 kPa
Conditions | x2 = 0.0407 | x2 = 0.2014 | x2 = 0.2807 | x2 = 0.3471 | x2 = 0.4382 | x2 = 0.6005 | x2 = 0.681 | x2 = 0.7595 | x2 = 0.8406 | x2 = 0.9199
293.15 K | 0.2369 ± 0.003 | 0.2738 ± 0.0033 | 0.2958 ± 0.0035 | 0.3151 ± 0.0037 | 0.3506 ± 0.004 | 0.429 ± 0.0049 | 0.4775 ± 0.0054 | 0.5323 ± 0.0061 | 0.5947 ± 0.0069 | 0.6586 ± 0.0077
298.15 K | 0.2277 ± 0.003 | 0.2567 ± 0.0032 | 0.2795 ± 0.0034 | 0.3014 ± 0.0036 | 0.337 ± 0.0039 | 0.4124 ± 0.0047 | 0.4571 ± 0.0053 | 0.5046 ± 0.0058 | 0.5587 ± 0.0065 | 0.6168 ± 0.0073
303.15 K | 0.1977 ± 0.0028 | 0.2381 ± 0.0031 | 0.2612 ± 0.0033 | 0.2824 ± 0.0035 | 0.3164 ± 0.0038 | 0.3885 ± 0.0045 | 0.431 ± 0.005 | 0.4771 ± 0.0056 | 0.5299 ± 0.0062 | 0.5849 ± 0.007

CCCCCCCO + CC#N
viscosity [mPa·s], 101 kPa
Conditions | 298.15 K | 303.15 K | 308.15 K
x2 = 0.0959 | 3.772 ± 0.32 | 3.561 ± 0.31 | 2.881 ± 0.25
x2 = 0.2368 | 2.953 ± 0.26 | 2.592 ± 0.23 | 2.277 ± 0.2
x2 = 0.3327 | 2.267 ± 0.2 | 2.022 ± 0.18 | 1.808 ± 0.16
x2 = 0.4126 | 1.836 ± 0.17 | 1.634 ± 0.15 | 1.457 ± 0.13
x2 = 0.5459 | 1.278 ± 0.12 | 1.149 ± 0.11 | 1.047 ± 0.099
x2 = 0.6546 | 0.943 ± 0.091 | 0.857 ± 0.084 | 0.786 ± 0.078
x2 = 0.741 | 0.716 ± 0.072 | 0.658 ± 0.067 | 0.611 ± 0.063
x2 = 0.8119 | 0.58 ± 0.061 | 0.547 ± 0.058 | 0.51 ± 0.055
x2 = 0.8706 | 0.487 ± 0.053 | 0.463 ± 0.051 | 0.433 ± 0.048
x2 = 0.9199 | 0.423 ± 0.047 | 0.402 ± 0.046 | 0.382 ± 0.044
x2 = 0.9633 | 0.384 ± 0.044 | 0.366 ± 0.043 | 0.35 ± 0.041

C[N+](C)(C)CCC[n+]1ccccc1.N#C[N-]C#N.N#C[N-]C#N + CC#N
100 kPa
Conditions | viscosity [mPa·s]
293.15 K, x1 = 0.1999 | 10.75 ± 1.1
298.15 K, x1 = 0.0999 | 3.205 ± 0.32
298.15 K, x1 = 0.1999 | 9.545 ± 0.96
298.15 K, x1 = 0.4999 | 98.11 ± 10
308.15 K, x1 = 0.2998 | 20.95 ± 2.1
313.15 K, x1 = 0.2998 | 18.15 ± 1.8
318.15 K, x1 = 0.7998 | 117.5 ± 12

CC(=O)CC(C)(C)O + CC(=O)CC(C)C
298.15 K, 101 kPa
Conditions | viscosity [mPa·s]
x2 = 0.1301 | 2.157 ± 0.021
x2 = 0.2473 | 1.707 ± 0.017
x2 = 0.3676 | 1.351 ± 0.013
x2 = 0.4821 | 1.108 ± 0.011
x2 = 0.5836 | 0.943 ± 0.009
x2 = 0.6974 | 0.796 ± 0.008
x2 = 0.8046 | 0.687 ± 0.007
x2 = 0.9001 | 0.608 ± 0.006
